Measured values reported in PubChem BioAssay AID1259407 (Chemical Carcinogenesis Research Information System (CCRIS), 2018).
Active and inactive are the calls of the source. No rule for the calls is given here.

Tested on: CCRIS mutagenicity, Ames/micronucleus/aberration tests
Experiment: CCRIS mutagenicity studies
[1] = Test System: AMES SALMONELLA TYPHIMURIUM, Strain/Indicator: TA100, Metabolic Activation: NONE, Method: PREINCUBATION
[2] = Test System: AMES SALMONELLA TYPHIMURIUM, Strain/Indicator: TA1535, Metabolic Activation: NONE, Method: PREINCUBATION
[3] = Test System: AMES SALMONELLA TYPHIMURIUM, Strain/Indicator: TA1537, Metabolic Activation: NONE, Method: PREINCUBATION

With `CCCCCCCCCCCCCCCCCC(N)=O` the mutagenic call (Test System: AMES SALMONELLA TYPHIMURIUM, Strain/Indicator: TA98, Metabolic Activation: NONE, Method: PREINCUBATION) was “inactive; negative”, the mutagenic call (Test System: AMES SALMONELLA TYPHIMURIUM, Strain/Indicator: TA98, Metabolic Activation: RAT LIVER S-9, PHENOBARBITAL AND BETA-NAPHTHOFLAVONE, Method: PREINCUBATION) was “inactive; negative” and the mutagenic call [1] was “inactive; negative”. The mutagenic call (Test System: AMES SALMONELLA TYPHIMURIUM, Strain/Indicator: TA100, Metabolic Activation: RAT LIVER S-9, PHENOBARBITAL AND BETA-NAPHTHOFLAVONE, Method: PREINCUBATION) was “inactive; negative”, the mutagenic call [2] was “inactive; negative” and the mutagenic call (Test System: AMES SALMONELLA TYPHIMURIUM, Strain/Indicator: TA1535, Metabolic Activation: RAT LIVER S-9, PHENOBARBITAL AND BETA-NAPHTHOFLAVONE, Method: PREINCUBATION) was “inactive; negative”. For the same molecule, the mutagenic call [3] was “inactive; negative”, the mutagenic call (Test System: AMES SALMONELLA TYPHIMURIUM, Strain/Indicator: TA1537, Metabolic Activation: RAT LIVER S-9, PHENOBARBITAL AND BETA-NAPHTHOFLAVONE, Method: PREINCUBATION) was “inactive; negative” and the mutagenic call (Test System: E.COLI, Strain/Indicator: WP2UVRA/PKM101, Metabolic Activation: NONE, Method: PREINCUBATION) was “inactive; negative”. The mutagenic call (Test System: E.COLI, Strain/Indicator: WP2UVRA/PKM101, Metabolic Activation: RAT LIVER S-9, PHENOBARBITAL AND BETA-NAPHTHOFLAVONE, Method: PREINCUBATION) was “inactive; negative”.

In the case of `COc1cc(-c2cc(=O)c3c(O)cc(O)cc3o2)ccc1O`, the mutagenic call (Test System: Ames Salmonella typhimurium, Strain/Indicator: TA98, Metabolic Activation: None, Method: Standard plate) is reported as “inactive; negative” and the mutagenic call (Test System: Ames Salmonella typhimurium, Strain/Indicator: TA98, Metabolic Activation: Rat, Liver, S-9, Aroclor 1254, Method: Standard plate) is reported as “inactive; negative”.

`CCC1=C(C(=O)OC)C(=O)OC1C` (centres undefined) was tested, and the mutagenic call (Test System: AMES SALMONELLA TYPHIMURIUM, Strain/Indicator: TA98, Metabolic Activation: NONE, Method: DISK ASSAY) was “inactive; negative”, the mutagenic call (Test System: AMES SALMONELLA TYPHIMURIUM, Strain/Indicator: TA98, Metabolic Activation: NONE, Method: STANDARD PLATE) was “active; positive” and the mutagenic call (Test System: AMES SALMONELLA TYPHIMURIUM, Strain/Indicator: TA98, Metabolic Activation: RAT, LIVER, S-9, AROCLOR 1254, Method: DISK ASSAY) was “inactive; negative”. For the same molecule, the mutagenic call (Test System: AMES SALMONELLA TYPHIMURIUM, Strain/Indicator: TA98, Metabolic Activation: RAT, LIVER, S-9, AROCLOR 1254, Method: STANDARD PLATE) was “active; positive”.

With `c1ccc2cc3c(cc2c1)c1cccc2ccc4cccc3c4c21` the mutagenic call (Test System: HUMAN H1A1V2 CELLS, Strain/Indicator: TK LOCUS, Metabolic Activation: NONE, Method: SUSPENSION/PLATE) was “active; positive”.

With `NNc1ccn([C@@H]2C[C@H](O)[C@@H](CO)O2)c(=O)n1` the mutagenic call (Test System: CHINESE HAMSTER V-79, Strain/Indicator: V-79/6-THIOGUANINE, Metabolic Activation: NONE, Method: REPLATING) was “inactive; negative”.

With `O=C1N(CO)C(O)C(O)N1CO` (centres undefined) the mutagenic call (Test System: AMES SALMONELLA TYPHIMURIUM, Strain/Indicator: TA98, Metabolic Activation: HAMSTER, LIVER, AROCLOR 1254 (10%), Method: PREINCUBATION) was “inactive; negative”, the mutagenic call (Test System: AMES SALMONELLA TYPHIMURIUM, Strain/Indicator: TA98, Metabolic Activation: HAMSTER, LIVER, S-9, AROCLOR 1254 (10%), Method: PREINCUBATION) was “inactive; negative” and the mutagenic call (Test System: AMES SALMONELLA TYPHIMURIUM, Strain/Indicator: TA98, Metabolic Activation: RAT, LIVER, S-9, AROCLOR 1254 (10%), Method: PREINCUBATION) was “inactive; negative”. The mutagenic call [1] was “inactive; negative”, the mutagenic call (Test System: AMES SALMONELLA TYPHIMURIUM, Strain/Indicator: TA1535, Metabolic Activation: HAMSTER, LIVER, S-9, AROCLOR 1254 (10%), Method: PREINCUBATION) was “inactive; negative” and the mutagenic call [2] was “inactive; negative”. The mutagenic call (Test System: AMES SALMONELLA TYPHIMURIUM, Strain/Indicator: TA1535, Metabolic Activation: RAT, LIVER, S-9, AROCLOR 1254 (10%), Method: PREINCUBATION) was “inactive; negative”, the mutagenic call (Test System: AMES SALMONELLA TYPHIMURIUM, Strain/Indicator: TA1537, Metabolic Activation: HAMSTER, LIVER, S-9, AROCLOR 1254 (10%), Method: PREINCUBATION) was “inactive; negative” and the mutagenic call [3] was “inactive; negative”. For the same molecule, the mutagenic call (Test System: AMES SALMONELLA TYPHIMURIUM, Strain/Indicator: TA1537, Metabolic Activation: RAT, LIVER, S-9, AROCLOR 1254 (10%), Method: PREINCUBATION) was “inactive; negative”.

In the case of `C1=CC2=C3OC3c3cc4c(cc3C2C=C1)c1c(c2ccccc24)O1` (centres undefined), the mutagenic call (Test System: AMES SALMONELLA TYPHIMURIUM, Strain/Indicator: TA100, Metabolic Activation: NONE, Method: STANDARD PLATE) is reported as “active; positive”.
